Source: patent US5324739A (priority 1993, dated 1994)

Experiments:
MRC-5 cells = assay: cytotoxicity / antiproliferative assay on dividing and confluent MRC-5 cells (MTT); format: cell-based, human; details: proliferating vs quiescent cells
Protocol: Evaluation of the antiproliferative activity of fractions using MRC-5 cells in culture was performed using the following procedure: Human embryonic lung (MRC-5) cells were obtained from the American Type Culture Collection. The cells were grown in Eagle's Minimum Essential Medium with Earle's salts (EMEM, JRH Bioscience) supplemented with 10% fetal calf serum (Hyclone), 0.75 mg/mL NaHCO3, 100 units of penicillin per mL, and 100 μg streptomycin per mL (Gibco Labs). As in the AB1 cell assay, cell growth and survival was determined calorimetrically, based upon the uptake and reduction of the tetrazolium salt, MTT, to a blue-colored formazan product by mitochondrial enzymes of living cells. The effect of the fractions, as potential inhibitors at different stages of the cell cycle, was determined by performing the assay using both resting and rapidly dividing cells. […] At the end of the incubation, the medium was aspirated, the cells were rinsed once using PBS, and 1.0 mg/mL of MTT was added to each well. The plates were incubated with MTT for three hours, after which the MTT was aspirated and isopropanol was added to dissolve any formazen crystals that formed. Plates were "read" on an Elisa reader at 570 nm (principal wavelength) and again at 650 wavelength (reference wavelength) to correct for non-specific background absorbance, using a Thermomax Spectrophotometer (Molecular Devices). […]

[1] = system: 60 different human tumor cell lines; details: for cytotoxicity: cancer cell lines
Protocol: In these examples, an extract of Lyngbya majuscula containing Curacins A and B was subjected to the drug screening procedure employed by the National Cancer Institute for the screening of drugs having possible anticancer utility.
The screening procedure employed a diverse, disease-oriented panel consisting of 60 different human tumor cell lines organized into seven disease-specific subpanels. The extract was tested over a wide range of concentrations for cytotoxic or growth-inhibitory effects against each cell line comprising the panel. The seven subpanels represented diverse histologies (leukemias, melanomas, and tumors of the lung, colon, kidney, ovary, and brain).
The extract was tested over two days in which the cells were continuously exposed to five log10 -spaced concentrations of the drug starting at 10^-4 μg/mL. The tests produced 60 individual dose-response curves, one for each cell line (i.e., one for each example).
To produce data for the mean-graph format shown in FIG. 7, a concentration of the extract that produced a target level response was calculated for each cell line. Three different response parameters were evaluated. The first response parameter was the "GI50," which is the concentration of the extract that produced an apparent 50% decrease in the number of tumor cells relative to the appropriate control (not exposed to extract) at the end of the incubation period. The second response parameter was the "TGI," which is the concentration at which the number of tumor cells remaining at the end of the incubation period substantially equaled the number of tumor cells existing at the start of the incubation period. The third response parameter was the "LC50," which is the concentration of extract that caused an apparent 50 percent reduction in the number of tumor cells relative to the appropriate control (not exposed to extract) at the start of the incubation period.
In a typical GI50 mean graph (e.g., left graph of FIG. 7), the relative position of the vertical reference line along the horizontal concentration axis is obtained by averaging the negative log10 GI50 values for all the cell lines tested against the extract. Horizontal bars are then plotted for the individual negative log10 GI50 values of each cell line relative to the vertical reference line. […] The length of a bar is proportional to the difference between the log10 GI50 value obtained with the particular cell line and the mean (represented by the vertical reference line).
COMPARE is used to rank the similarity of the mean graph profile of the sample extract or drug to the patterns of all the other compounds in the NCI screening database or a defined subset thereof.

proliferating cells = assay: administration of formulations containing Curacins A and B to mice (data not shown); format: in vivo; details: various direct methods and oral
Text: In addition, these tests indicate that Curacins A and B can be administered to animal subjects using dosage protocols that are substantially similar to such protocols used with other antimitotics.

brine shrimp = format: in vivo; details: see Example 1
Protocol: In this Example, various concentrations of the organic extract of Lyngbya majuscula were tested using a brine-shrimp assay. The assay was performed according to the following procedure: 24 hours before performing the assay, brine shrimp eggs were hatched in sea water (made by dissolving INSTANT OCEAN dry concentrate in water according to manufacturer's directions). A volume of the organic extract of Lyngbya majuscula was placed in a 50-mL conical flask (weighed beforehand to obtain the tare weight) and the solvent was evaporated. The flask was re-weighed and the tare weight subtracted to yield the weight of non-volatile residue from the extract. The residue was dissolved with a suitable volume of ethanol to yield a concentration of 0.1 mg residue per μL ethanol. Four vials were prepared, the first containing 50 μL of the ethanol solution, the second containing 10 μL of the ethanol solution plus 40 μL ethanol, the third containing 2.5 μL of the ethanol solution plus 47.5 μL ethanol, and the fourth containing none of the solution and 50 μL ethanol (serving as a negative control). Between 10 and 15 live brine shrimp were placed in each vial and stored for 24 hours, after which the number of live and dead shrimp were tallied for each vial. […]

spleen lymphocytes = assay: ex vivo experiments on spleen lymphocytes after administration to mice; details: 1-10 mg/kg
MRC-5 cells; AB1 cells = assay: activity of second-stage fractions and of the separated isomers (FIG. 1; test not stated); format: cell-based; details: Curacin A vs Curacin B
Protocol: Elution in the second stage was performed within a much smaller range of increasingly greater amounts of ethyl acetate in hexane (1 to 5% in 0.5 to 1.0% increments). […] Fractions 5-9 were pooled and, as such, represented about 200 mg total.
Since the Curacin A and Curacin B compounds were […] to CH2 N2, methylation offered a way to purify the compound from the contaminants in the extract. After reaction of the extract with CH2 N2, the extract was subjected to high performance liquid chromatography (HPLC) in an effort to separate the two isomers. […]
Evaluation of the antiproliferative activity of fractions using MRC-5 cells in culture was performed using the following procedure: Human embryonic lung (MRC-5) cells were obtained from the American Type Culture Collection. […] As in the AB1 cell assay, cell growth and survival was determined calorimetrically, based upon the uptake and reduction of the tetrazolium salt, MTT, to a blue-colored formazan product by mitochondrial enzymes of living cells. The effect of the fractions, as potential inhibitors at different stages of the cell cycle, was determined by performing the assay using both resting and rapidly dividing cells. […]

Row | Structure (SMILES) | activity against proliferating versus quiescent cells (MRC-5 cells) | mode of action indicated by COMPARE analysis ([1]; COMPARE data, Tables 1 and 2) | cytotoxicity [1] | antiproliferative activity against living cells in culture ([1]; living cells in culture) | antimitotic activity ([1]; various tests) | bioavailability (proliferating cells) | effectiveness in vivo against proliferating cells (proliferating cells) | effectiveness for reducing a population of representative arthropods (brine shrimp) (brine shrimp) | effect against spleen lymphocytes (spleen lymphocytes) | activity of Curacin A relative to Curacin B (times more active) (MRC-5 cells; AB1 cells)
1 | C=CC[C@@H](CC/C(C)=C/C=C/CC/C=C\[C@@H]1CSC([C@@H]2C[C@@H]2C)=N1)OC [Curacin A] | more active against proliferating cells than against quiescent cells | functions as an antimitotic | cytotoxic | substantial antiproliferative activity | substantial antimitotic activity | bioavailable | effective in vivo against proliferating cells | effectiveness | substantial effect against spleen lymphocytes | about 10^2
2 | C=CC[C@@H](CC/C(C)=C/C=C\CC/C=C\[C@@H]1CSC([C@@H]2C[C@@H]2C)=N1)OC [Curacin B] | more active against proliferating cells than against quiescent cells | – | cytotoxic | – | – | bioavailable | effective in vivo against proliferating cells | – | substantial effect against spleen lymphocytes | –
